Like-named read-outs stand apart in the source and are kept apart here.
Experiments:
[1] = target: T1, human glutaredoxin (Grx1) (Homo sapiens, UniProt P35754); test: X-ray crystallography of Grx1 with Tavocept-derived mesna adducts; type: binding; conditions: 40 mM Tavocept
T1 construct: 6xHis (TEV-cleavable) (N, cleaved yes); made in house; host or cells: E. coli BL21 (RIPL)
Source text: Diffraction data were collected at the Advanced Light Source (ALS) (Berkeley, Calif.). […] Data was processed using the program package MosFlm as part of the ccp4 program package.
Data was indexed, integrated, scaled and merged using the program Mosflm. […] The solution was consistent with one molecule in the crystal asymmetric unit. […] The structure solution is supported by contiguous electron density for the entire chain trace of each molecule, landmark side chain density features matching the amino acid sequence including cysteines, absence of phi-psi violations and final R/Rfree values in the normal range. […] Residues Gln39 and Glu55 have missing side-chain atoms in the final structures (side chain atoms CD, CG, OE1, NE2 and CD, OE1, OE2, respectively).

recombinant human ALK = recombinant human ALK (Homo sapiens, UniProt Q9UM73); test: biochemical; conditions: for IC50: IC50 on ALK
Description: The substrate that was phosphorylated by the kinase, polyglutamate-tyrosine (PolyGT), was purchased from Sigma (P0275, lot 120M5007V).
All other reagents were purchased from Sigma Aldrich. A Tecan Ultra microplate reader with XFluor software (Tecan, V4.51) and RdrOle software (Tecan, V4.50) were used in this study.
ALK phosphorylated the polyGT substrate using the ATP cofactor and produced ADP. […] The reactions, in microtubes, were incubated for 60 minutes at 25° C. in a water bath. Following this 60 minute incubation, reactions were transferred to microplates and the kinase activity was evaluated using the ADP-glo system from Promega and monitored, in an endpoint assay, ADP produced when ALK phosphorylated the PolyGT substrate. Various controls were tested and included the assay components indicated in the columns of Table 9 below (where + indicates the component was included and an empty cell indicates it was not included).
Kinase assays were run in triplicate or quadruplicate in microplates. Following this, the ADP-glo detection system (Promega) was used to determine how much ADP had been produced. For 10 μL volume assays, to each microplate well containing 10 μL of kinase reaction was added ADP-glo reagent (10 μL), plates were spun in a table top centrifuge (1000 rpm (123×g) for 1 minute) to ensure no reagent remained on the well walls, and then agitated for 1 minute to ensure optimal mixing. Plates were incubated at 25° C. on a heat block for 40 minutes. Next, kinase detection reagent (20 μL) was added and, as above, centrifugation and agitation was repeated; plates were allowed to incubate at 25° C.±1° C. on a heat block for 40 minutes. Following the incubation of the kinase detection reagent, plates were read on a Tecan Ultra microplate reader. The Tecan Ultra contained a built-in plate definition file for the whole area 96-well white Corning plates but a plate definition file for the half area 96-well Corning plates was created using the RdrOle component of the Tecan Ultra software. For 25 μL volume assays, the procedure was as described above except that the ADP-glo reagent added to the 25 μL assay was 25 μL in volume and the kinase detection reagent was 50 μL in volume.
Therefore, each mole of polymer of 20,000 g/mole would contain approximately 28 moles of the glu-glu-glu-glu-tyr “subpolymer.” Typically, a 10 μL assay would contain […] of the polyGT substrate. […] This was a vast excess of possible tyrosine phosphorylation sites, ensuring that the substrate for phosphorylation was not rate limiting (assuming the higher mass range would produce an even larger excess of glu-glu-glu-glu-tyr “subpolymers”).
Data from ALK assays run on the Tecan Ultra microplate spectrophotometer were collected in Microsoft Excel. Error calculations and graphical representations were performed in Microsoft Office Excel (Microsoft Corporation, Redmond, Wash., USA). Determination of IC25, IC50 and IC75 values were accomplished using Origin Lab software (OriginLab Corporation, Northampton, Mass., USA).

RNR subunit 1 = RNR subunit 1 (Homo sapiens, UniProt P23921); test: Whole protein MS of RNR subunit 1; type: binding; conditions: whole protein Mass Spectroscopy
Source text: RNR1 contains a total of sixteen (16) cysteine residues and at least five (5) of these cysteine residues are required for catalysis, including: Cys218, Cys429, Cys444, Cys787, and Cys790. It is hypothesized that the Tavocept-derived mesna adducts identified on the RNR1 protein using whole protein Mass Spectroscopy (see, FIG. 49) may alter or modulate RNR activity.

Chain of recombinant human ALK (Q9UM73 1058-1620 limits assumed): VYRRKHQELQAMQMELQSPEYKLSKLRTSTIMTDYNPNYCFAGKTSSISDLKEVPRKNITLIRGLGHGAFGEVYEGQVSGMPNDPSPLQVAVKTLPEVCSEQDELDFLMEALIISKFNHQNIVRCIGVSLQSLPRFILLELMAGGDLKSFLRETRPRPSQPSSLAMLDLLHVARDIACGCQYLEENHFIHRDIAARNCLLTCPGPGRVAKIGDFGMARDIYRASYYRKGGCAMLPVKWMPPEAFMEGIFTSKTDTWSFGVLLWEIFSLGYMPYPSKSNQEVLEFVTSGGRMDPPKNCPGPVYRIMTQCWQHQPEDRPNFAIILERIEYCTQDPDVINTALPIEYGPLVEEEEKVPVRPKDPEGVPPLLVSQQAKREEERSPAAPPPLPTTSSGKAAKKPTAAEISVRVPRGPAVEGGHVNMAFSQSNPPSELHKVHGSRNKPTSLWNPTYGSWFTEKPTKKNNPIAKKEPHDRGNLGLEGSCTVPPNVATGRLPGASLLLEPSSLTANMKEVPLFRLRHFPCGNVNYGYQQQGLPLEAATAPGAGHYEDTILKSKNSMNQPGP
Chain of RNR subunit 1 (P23921 whole entry): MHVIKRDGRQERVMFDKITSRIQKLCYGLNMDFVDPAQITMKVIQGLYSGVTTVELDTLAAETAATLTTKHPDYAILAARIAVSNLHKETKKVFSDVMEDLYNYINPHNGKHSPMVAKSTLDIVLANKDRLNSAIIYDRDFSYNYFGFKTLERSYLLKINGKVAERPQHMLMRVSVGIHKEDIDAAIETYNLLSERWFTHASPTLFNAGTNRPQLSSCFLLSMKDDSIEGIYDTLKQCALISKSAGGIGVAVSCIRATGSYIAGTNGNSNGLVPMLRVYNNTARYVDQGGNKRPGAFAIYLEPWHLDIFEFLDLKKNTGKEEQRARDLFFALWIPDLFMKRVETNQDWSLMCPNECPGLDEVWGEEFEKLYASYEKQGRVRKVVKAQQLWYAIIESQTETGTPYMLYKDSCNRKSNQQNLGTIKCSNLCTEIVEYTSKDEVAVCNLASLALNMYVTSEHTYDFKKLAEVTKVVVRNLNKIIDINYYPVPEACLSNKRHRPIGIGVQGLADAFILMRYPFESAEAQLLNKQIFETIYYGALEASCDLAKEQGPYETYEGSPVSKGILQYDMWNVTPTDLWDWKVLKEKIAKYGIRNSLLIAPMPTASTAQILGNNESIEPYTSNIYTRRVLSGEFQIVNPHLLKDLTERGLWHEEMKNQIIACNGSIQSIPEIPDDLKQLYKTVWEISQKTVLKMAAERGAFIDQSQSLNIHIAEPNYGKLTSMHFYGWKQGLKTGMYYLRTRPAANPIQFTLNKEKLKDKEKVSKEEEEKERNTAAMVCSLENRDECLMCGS
T1 sequence (P35754 whole entry): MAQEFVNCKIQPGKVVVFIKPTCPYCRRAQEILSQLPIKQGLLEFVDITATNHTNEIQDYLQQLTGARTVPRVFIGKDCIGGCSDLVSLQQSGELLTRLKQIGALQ

Question: What does the source list for `O=S(=O)([O-])CCSSCCS(=O)(=O)[O-].[Na+].[Na+]` [Tavocept, disodium 2,2′-dithio-bis-ethane sulfonate]?
Answer: Tavocept-derived mesna adduct sites on Grx [1]: observed on Cys7 and Cys82; greater inhibition of ALK than Crizotinib alone (recombinant human ALK; 100 μM ATP, 5 mM Tavocept + 15 nM Crizotinib): 16%; greater inhibition of ALK than Crizotinib alone (recombinant human ALK; 100 μM ATP, 5 mM Tavocept + 30 nM Crizotinib): 10%; greater inhibition of ALK than Crizotinib alone (recombinant human ALK; 100 μM ATP, 10 mM Tavocept + 15 nM Crizotinib): 29%; greater inhibition of ALK than Crizotinib alone (recombinant human ALK; 100 μM ATP, 10 mM Tavocept + 30 nM Crizotinib): 19%; greater inhibition of ALK than Crizotinib alone (recombinant human ALK; 500 μM ATP, 5 mM Tavocept + 30 nM Crizotinib): 11%; greater inhibition of ALK than Crizotinib alone (recombinant human ALK; 500 μM ATP, 5 mM Tavocept + 65 nM Crizotinib): 6%; greater inhibition of ALK than Crizotinib alone (recombinant human ALK; 500 μM ATP, 10 mM Tavocept + 30 nM Crizotinib): 20%; greater inhibition of ALK than Crizotinib alone (recombinant human ALK; 500 μM ATP, 10 mM Tavocept + 65 nM Crizotinib): 6%; greater inhibition of ALK than Crizotinib alone (recombinant human ALK; 500 μM ATP, 20 mM Tavocept + 30 nM Crizotinib): 30%; greater inhibition of ALK than Crizotinib alone (recombinant human ALK; 500 μM ATP, 20 mM Tavocept + 65 nM Crizotinib): 13%; IC50 (recombinant human ALK; 100 μM ATP): 9.16 ± 2.91 mM; IC50 (recombinant human ALK; 500 μM ATP): 20.8 ± 3.49 mM; inhibition at 5000 µM (recombinant human ALK; read-out: greater inhibition of ALK than Crizotinib alone, 100 μM ATP, 5 mM Tavocept + 15 nM Crizotinib): 16%; inhibition at 5000 µM (recombinant human ALK; read-out: greater inhibition of ALK than Crizotinib alone, 100 μM ATP, 5 mM Tavocept + 30 nM Crizotinib): 10%; inhibition at 10000 µM (recombinant human ALK; read-out: greater inhibition of ALK than Crizotinib alone, 100 μM ATP, 10 mM Tavocept + 15 nM Crizotinib): 29%; inhibition at 10000 µM (recombinant human ALK; read-out: greater inhibition of ALK than Crizotinib alone, 100 μM ATP, 10 mM Tavocept + 30 nM Crizotinib): 19%; inhibition at 5000 µM (recombinant human ALK; read-out: greater inhibition of ALK than Crizotinib alone, 500 μM ATP, 5 mM Tavocept + 30 nM Crizotinib): 11%; inhibition at 5000 µM (recombinant human ALK; read-out: greater inhibition of ALK than Crizotinib alone, 500 μM ATP, 5 mM Tavocept + 65 nM Crizotinib): 6%; inhibition at 10000 µM (recombinant human ALK; read-out: greater inhibition of ALK than Crizotinib alone, 500 μM ATP, 10 mM Tavocept + 30 nM Crizotinib): 20%; inhibition at 10000 µM (recombinant human ALK; read-out: greater inhibition of ALK than Crizotinib alone, 500 μM ATP, 10 mM Tavocept + 65 nM Crizotinib): 6%; inhibition at 20000 µM (recombinant human ALK; read-out: greater inhibition of ALK than Crizotinib alone, 500 μM ATP, 20 mM Tavocept + 30 nM Crizotinib): 30%; inhibition at 20000 µM (recombinant human ALK; read-out: greater inhibition of ALK than Crizotinib alone, 500 μM ATP, 20 mM Tavocept + 65 nM Crizotinib): 13%; number of Tavocept-derived mesna adducts on RNR1 cysteine residues (RNR subunit 1): ≤ 8

Reference: US20160106439A1, “PNEUMATIC TOURNIQUET” (BIONUMERIK PHARMACEUTICALS, INC., priority 2013, published 2016)
